The target in one assay is T1, His-BIR3 (241-356, XIAP) (Homo sapiens, UniProt P98170).
T1 construct: additions of His-BIR3 (241-356, XIAP), fluorescein labeled SMAC peptide
The experiment in a line: XIAP-BIR3/SMAC Homogeneous Time Resolved Fluorescence (HTRF) Assay. Type of assay: binding. The settings on record: Table 4.

The target of assay [1] is T2, His-BIR2-3 (125-356, C202A/C213G, XIAP) (Homo sapiens, UniProt P98170, C202A/C213G).
T2 construct: additions of His-BIR2-3 (125-356, C202A/C213G, XIAP), fluorescein labeled dimeric SMAC peptide
The assay is described as follows: XIAP-BIR2-3 Dimeric SMAC Peptide Homogeneous Time Resolved Fluorescence (HTRF) Assay. Type of assay: binding. The settings on record: XIAP BIR2-3, HTRF, Table 4. (In general: In TR-FRET formats the signal depends on donor and acceptor labels being close together.)

T1 sequence (P98170 241-356): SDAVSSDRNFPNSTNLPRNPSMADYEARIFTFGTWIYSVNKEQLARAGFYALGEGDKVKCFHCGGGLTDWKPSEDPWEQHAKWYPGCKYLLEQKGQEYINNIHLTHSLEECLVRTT
T2 sequence (P98170 125-356 C202A/C213G): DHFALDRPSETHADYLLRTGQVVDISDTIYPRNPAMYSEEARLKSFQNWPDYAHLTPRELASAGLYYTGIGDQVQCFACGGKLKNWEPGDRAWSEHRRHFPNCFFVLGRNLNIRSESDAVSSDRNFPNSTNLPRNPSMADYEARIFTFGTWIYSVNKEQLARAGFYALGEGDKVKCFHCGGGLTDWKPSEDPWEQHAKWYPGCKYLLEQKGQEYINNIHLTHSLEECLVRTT

A word on the IC50: it is the concentration that inhibits the measured activity by half. Low values mean greater potency, high ones weaker potency. Take `CN[C@@H](C)C(=O)N[C@H](C(=O)N1C[C@@H]2C[C@H]1C(=O)N[C@@H](Cc1ccc3ccccc3c1)C(=O)N[C@H](C(=O)O)Cc1ccc(cc1)OCc1cn(nn1)[C@H]1C[C@@H](C(=O)N[C@@H](Cc3ccc4ccccc4c3)C(=O)N[C@H](C(=O)OC)Cc3ccc(cc3)OCc3cn2nn3)N(C(=O)[C@@H](NC(=O)[C@H](C)NC)C(C)(C)C)C1)C(C)(C)C` [Compound 1001]: the IC50 against His-BIR3 (241-356, XIAP) is more than 100 nM; in assay [1], more than 10 nM.

Turning to `CN[C@@H](C)C(=O)N[C@H](C(=O)N1C[C@@H]2C[C@H]1C(=O)N[C@@H](Cc1ccc3ccccc3c1)C(=O)N[C@H](C(=O)O)Cc1ccc(cc1)OCc1cn(nn1)[C@H]1C[C@@H](C(=O)N[C@@H](Cc3ccc4ccccc4c3)C(=O)N[C@H](C(=O)O)Cc3ccc(cc3)OCc3cn2nn3)N(C(=O)[C@@H](NC(=O)[C@H](C)NC)C23CC4CC(CC(C4)C2)C3)C1)C12CC3CC(CC(C3)C1)C2` [Compound 1008], the IC50 at His-BIR3 (241-356, XIAP) is 10 to 100 nM; in assay [1], not above 1 nM.

In the case of `CN[C@@H](C)C(=O)N[C@H](C(=O)N1C[C@@H]2C[C@H]1C(=O)N[C@@H](Cc1ccc3ccccc3c1)C(=O)N[C@H](C(=O)O)Cc1ccc(cc1)OCc1cn(nn1)[C@H]1C[C@@H](C(=O)N[C@@H](Cc3ccc4ccccc4c3)C(=O)N[C@H](C(=O)O)Cc3ccc(cc3)OCc3cn2nn3)N(C(=O)[C@@H](NC(=O)[C@H](C)NC)C23CC4CC(CC(O)(C4)C2)C3)C1)C12CC3CC(CC(O)(C3)C1)C2` [Compound 1009], the IC50 at His-BIR3 (241-356, XIAP) is less than 10 nM; in assay [1], 1 to 10 nM.

On to `CN[C@@H](C)C(=O)N[C@H](C(=O)N1C[C@@H]2C[C@H]1C(=O)N[C@@H](Cc1ccc3ccccc3c1)C(=O)N[C@H](C(=O)O)Cc1ccc(cc1)OCCCc1cn(nn1)[C@H]1C[C@@H](C(=O)N[C@@H](Cc3ccc4ccccc4c3)C(=O)N[C@H](C(=O)O)Cc3ccc(cc3)OCCCc3cn2nn3)N(C(=O)[C@@H](NC(=O)[C@H](C)NC)C(C)(C)C)C1)C(C)(C)C` [Compound 1011], for which the IC50 at His-BIR3 (241-356, XIAP) was less than 10 nM; in assay [1], 1 to 10 nM.

For `CN[C@@H](C)C(=O)N[C@H](C(=O)N1C[C@@H]2C[C@H]1C(=O)N[C@@H](Cc1ccc3ccccc3c1)C(=O)N[C@H](C(=O)O)Cc1ccc(cc1)NC(=O)CCc1cn(nn1)[C@H]1C[C@@H](C(=O)N[C@@H](Cc3ccc4ccccc4c3)C(=O)N[C@H](C(=O)O)Cc3ccc(cc3)NC(=O)CCc3cn2nn3)N(C(=O)[C@@H](NC(=O)[C@H](C)NC)C(C)(C)C)C1)C(C)(C)C` [Compound 1012], the IC50 was less than 10 nM on His-BIR3 (241-356, XIAP) and 1 to 10 nM in assay [1].

For `CNC(C)C(=O)NC(C(=O)N1CC2CC1C(=O)NC(Cc1ccc3ccccc3c1)C(=O)NC(C(=O)O)Cc1ccc(cc1)OCc1cn(nn1)C1CC(C(=O)NC(Cc3ccc4ccccc4c3)C(=O)NC(C(=O)O)c3ccc(cc3)OCc3cn2nn3)N(C(=O)C(NC(=O)C(C)NC)C(C)(C)C)C1)C(C)(C)C` (stereo not shown) [Compound 1013], the IC50 against His-BIR3 (241-356, XIAP) was less than 10 nM; in assay [1] it was not above 1 nM.

For `CN[C@@H](C)C(=O)N[C@H](C(=O)N1C[C@@H]2C[C@H]1C(=O)N[C@@H](Cc1ccc3ccccc3c1)C(=O)N[C@H](C(=O)O)Cc1ccc(cc1)NC(=O)c1cn(nn1)[C@H]1C[C@@H](C(=O)N[C@@H](Cc3ccc4ccccc4c3)C(=O)N[C@H](C(=O)O)Cc3ccc(cc3)OCc3cn2nn3)N(C(=O)[C@@H](NC(=O)[C@H](C)NC)C(C)(C)C)C1)C(C)(C)C` [Compound 1014], the IC50 on His-BIR3 (241-356, XIAP) is less than 10 nM; in assay [1] it was not above 1 nM.

Take `CN[C@@H](C)C(=O)N[C@H](C(=O)N1C[C@@H]2C[C@H]1C(=O)N[C@@H](Cc1ccc3ccccc3c1)C(=O)N[C@H](C(=O)O)Cc1ccc(cc1)-c1cn(nn1)[C@H]1C[C@@H](C(=O)N[C@@H](Cc3ccc4ccccc4c3)C(=O)N[C@H](C(=O)O)Cc3ccc(cc3)OCc3cn2nn3)N(C(=O)[C@@H](NC(=O)[C@H](C)NC)C(C)(C)C)C1)C(C)(C)C` [Compound 1015]: the IC50 lay in the range of 10 to 100 nM on His-BIR3 (241-356, XIAP) and 1 to 10 nM in assay [1].

`CN[C@@H](C)C(=O)N[C@H](C(=O)N1C[C@@H]2C[C@H]1C(=O)N[C@@H](Cc1ccc3ccccc3c1)C(=O)N[C@H](C(=O)O)Cc1ccc(cc1)OCc1cn(nn1)[C@H]1C[C@@H](C(=O)N[C@@H](Cc3ccc4ccccc4c3)C(=O)N[C@H](C(=O)O)Cc3ccc(cc3)NC(=O)CCc3cn2nn3)N(C(=O)[C@@H](NC(=O)[C@H](C)NC)C(C)(C)C)C1)C(C)(C)C` [Compound 1016]: the IC50 on His-BIR3 (241-356, XIAP) is less than 10 nM; in assay [1] it was not above 1 nM.

As to `CN[C@@H](C)C(=O)N[C@H](C(=O)N1C[C@@H]2C[C@H]1C(=O)N[C@@H](Cc1ccc3ccccc3c1)C(=O)N[C@H](C(=O)O)Cc1ccc(cc1)OCc1cn(nn1)[C@H]1C[C@@H](C(=O)N[C@@H](Cc3ccc4ccccc4c3)C(=O)N[C@H](C(=O)O)Cc3ccc(cc3)OCCc3cn2nn3)N(C(=O)[C@@H](NC(=O)[C@H](C)NC)C(C)(C)C)C1)C(C)(C)C` [Compound 1017], the IC50 was less than 10 nM against His-BIR3 (241-356, XIAP) and not above 1 nM in assay [1].

As to `CN[C@@H](C)C(=O)N[C@H](C(=O)N1C[C@@H]2C[C@H]1C(=O)N[C@@H](Cc1ccc3ccccc3c1)C(=O)N[C@H](C(=O)O)Cc1ccc(cc1)OCc1cn(nn1)[C@H]1C[C@@H](C(=O)N[C@@H](Cc3ccc4ccccc4c3)C(=O)N[C@H](C(=O)NCC(=O)O)Cc3ccc(cc3)OCc3cn2nn3)N(C(=O)[C@@H](NC(=O)[C@H](C)NC)C(C)(C)C)C1)C(C)(C)C` [Compound 1018], the IC50 against His-BIR3 (241-356, XIAP) was less than 10 nM; in assay [1] it was 1 to 10 nM.

On to `CN[C@@H](C)C(=O)N[C@H](C(=O)N1C[C@@H]2C[C@H]1C(=O)N[C@@H](Cc1ccc3ccccc3c1)C(=O)N[C@H](C(=O)O)Cc1ccc(cc1)OCc1cn(nn1)[C@H]1C[C@@H](C(=O)N[C@@H](Cc3ccc4ccccc4c3)C(=O)N[C@H](C(=O)NCCC(=O)O)Cc3ccc(cc3)OCc3cn2nn3)N(C(=O)[C@@H](NC(=O)[C@H](C)NC)C(C)(C)C)C1)C(C)(C)C` [Compound 1019], for which the IC50 on His-BIR3 (241-356, XIAP) was less than 10 nM; in assay [1], 1 to 10 nM.

`CN[C@@H](C)C(=O)N[C@H](C(=O)N1C[C@@H]2C[C@H]1C(=O)N[C@@H](Cc1ccc3ccccc3c1)C(=O)N[C@H](C(=O)O)Cc1ccc(cc1)OCc1cn(nn1)[C@H]1C[C@@H](C(=O)N[C@@H](Cc3ccc4ccccc4c3)C(=O)N[C@H](C(=O)N(C)CC(=O)O)Cc3ccc(cc3)OCc3cn2nn3)N(C(=O)[C@@H](NC(=O)[C@H](C)NC)C(C)(C)C)C1)C(C)(C)C` [Compound 1020]: the IC50 at His-BIR3 (241-356, XIAP) was 10 to 100 nM; in assay [1], 1 to 10 nM.

For `CN[C@@H](C)C(=O)N[C@H](C(=O)N1C[C@@H]2C[C@H]1C(=O)N[C@@H](Cc1ccc3ccccc3c1)C(=O)N[C@H](C(=O)O)Cc1ccc(cc1)OCc1cn(nn1)[C@H]1C[C@@H](C(=O)N[C@@H](Cc3ccc4ccccc4c3)C(=O)N[C@H](C(=O)N3CCC(C(=O)O)C3)Cc3ccc(cc3)OCc3cn2nn3)N(C(=O)[C@@H](NC(=O)[C@H](C)NC)C(C)(C)C)C1)C(C)(C)C` (stereo partly shown) [Compound 1021], the IC50 is less than 10 nM at His-BIR3 (241-356, XIAP) and 1 to 10 nM in assay [1].

As to `CN[C@@H](C)C(=O)N[C@H](C(=O)N1C[C@@H]2C[C@H]1C(=O)N[C@@H](Cc1ccc3ccccc3c1)C(=O)N[C@H](C(=O)O)Cc1ccc(cc1)OCc1cn(nn1)[C@H]1C[C@@H](C(=O)N[C@@H](Cc3ccc4ccccc4c3)C(=O)N[C@H](C(=O)NCc3nnn[nH]3)Cc3ccc(cc3)OCc3cn2nn3)N(C(=O)[C@@H](NC(=O)[C@H](C)NC)C(C)(C)C)C1)C(C)(C)C` [Compound 1022], the IC50 at His-BIR3 (241-356, XIAP) is less than 10 nM; in assay [1], 1 to 10 nM.

Consider `CN[C@@H](C)C(=O)N[C@H](C(=O)N1C[C@@H]2C[C@H]1C(=O)N[C@@H](Cc1ccc3ccccc3c1)C(=O)N[C@H](C(=O)O)Cc1ccc(cc1)OCc1cn(nn1)[C@H]1C[C@@H](C(=O)N[C@@H](Cc3ccc4ccccc4c3)C(=O)N[C@H](C(=O)NCc3ccc(-c4nnn[nH]4)cc3)Cc3ccc(cc3)OCc3cn2nn3)N(C(=O)[C@@H](NC(=O)[C@H](C)NC)C(C)(C)C)C1)C(C)(C)C` [Compound 1023], for which the 50% inhibitory concentration (IC50) on His-BIR3 (241-356, XIAP) is less than 10 nM; in assay [1], 1 to 10 nM.

For `CN[C@@H](C)C(=O)N[C@H](C(=O)N1C[C@@H]2C[C@H]1C(=O)N[C@@H](Cc1ccc3ccccc3c1)C(=O)N[C@H](C(=O)O)Cc1ccc(cc1)OCc1cn(nn1)[C@H]1C[C@@H](C(=O)N[C@@H](Cc3ccc4ccccc4c3)C(=O)N[C@H](C(=O)N(C)C)Cc3ccc(cc3)OCc3cn2nn3)N(C(=O)[C@@H](NC(=O)[C@H](C)NC)C(C)(C)C)C1)C(C)(C)C` [Compound 1024], the IC50 on His-BIR3 (241-356, XIAP) was less than 10 nM; in assay [1] it was 1 to 10 nM.

`CN[C@@H](C)C(=O)N[C@H](C(=O)N1C[C@@H]2C[C@H]1C(=O)N[C@@H](Cc1ccc3ccccc3c1)C(=O)N[C@H](C(=O)O)Cc1ccc(cc1)OCc1cn(nn1)[C@H]1C[C@@H](C(=O)N[C@@H](Cc3ccc4ccccc4c3)C(=O)N[C@H](C(=O)NCc3cccc(-c4nnn[nH]4)c3)Cc3ccc(cc3)OCc3cn2nn3)N(C(=O)[C@@H](NC(=O)[C@H](C)NC)C(C)(C)C)C1)C(C)(C)C` [Compound 1025]: the IC50 against His-BIR3 (241-356, XIAP) is less than 10 nM; in assay [1], 1 to 10 nM.

Turning to `CN[C@@H](C)C(=O)N[C@H](C(=O)N1CCN2CCn3cc(nn3)C[C@@H](C(=O)O)NC(=O)[C@H](Cc3ccc4ccccc4c3)NC(=O)[C@@H]3CN(CCN3C(=O)[C@@H](NC(=O)[C@H](C)NC)C(C)(C)C)CCn3cc(nn3)C[C@@H](C(=O)O)NC(=O)[C@H](Cc3ccc4ccccc4c3)NC(=O)[C@@H]1C2)C(C)(C)C` [Compound 1050], the IC50 in assay [1] is more than 10 nM.

The values above are taken from patent US20140309265A1, “MACROCYCLIC COMPOUNDS FOR INHIBITION OF INHIBITORS OF APOPTOSIS” (Ensemble Therapeutics, priority 2011, published 2014).
